The target in the assay is T1, human TLR8 (Homo sapiens, UniProt Q9NR97).
T1 sequence (Q9NR97 27-1041): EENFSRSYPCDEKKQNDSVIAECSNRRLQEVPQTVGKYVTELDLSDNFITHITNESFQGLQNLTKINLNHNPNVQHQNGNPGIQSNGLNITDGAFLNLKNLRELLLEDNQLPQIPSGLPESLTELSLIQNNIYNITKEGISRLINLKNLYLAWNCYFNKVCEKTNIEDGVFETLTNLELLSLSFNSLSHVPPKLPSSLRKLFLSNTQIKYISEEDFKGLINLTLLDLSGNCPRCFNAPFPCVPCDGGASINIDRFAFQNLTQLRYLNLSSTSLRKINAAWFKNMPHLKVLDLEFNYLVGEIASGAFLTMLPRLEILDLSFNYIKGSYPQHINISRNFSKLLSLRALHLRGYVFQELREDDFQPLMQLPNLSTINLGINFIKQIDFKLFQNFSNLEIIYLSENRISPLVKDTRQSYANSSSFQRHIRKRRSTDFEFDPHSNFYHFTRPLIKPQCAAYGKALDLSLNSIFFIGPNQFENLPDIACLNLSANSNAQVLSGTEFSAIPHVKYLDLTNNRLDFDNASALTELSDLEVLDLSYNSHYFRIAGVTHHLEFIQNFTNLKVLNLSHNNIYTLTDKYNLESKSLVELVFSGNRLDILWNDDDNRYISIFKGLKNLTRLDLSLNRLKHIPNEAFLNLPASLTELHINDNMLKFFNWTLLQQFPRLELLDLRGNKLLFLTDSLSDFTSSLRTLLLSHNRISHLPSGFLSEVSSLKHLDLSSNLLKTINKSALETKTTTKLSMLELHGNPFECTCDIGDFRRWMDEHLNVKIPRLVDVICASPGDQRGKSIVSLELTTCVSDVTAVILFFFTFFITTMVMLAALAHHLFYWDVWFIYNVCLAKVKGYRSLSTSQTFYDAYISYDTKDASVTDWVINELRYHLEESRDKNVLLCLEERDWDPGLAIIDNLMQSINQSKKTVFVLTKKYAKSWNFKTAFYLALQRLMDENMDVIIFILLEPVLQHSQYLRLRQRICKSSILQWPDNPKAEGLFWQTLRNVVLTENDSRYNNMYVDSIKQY
Description: HEK293-Blue-hTLR-8 cells assay (SEAP reporter, R848 stimulation). Format: cell-based. Conditions: HEK293-Blue-hTLR8 cells, R848, 20 hrs; 0.003 is the lowest tested concentration; read-out: HEK/hTLR8 IC50. Here is the method:
The following tests were carried out in order to determine the activity of the compounds of formula (I) or (Ia) in HEK293-Blue-hTLR-7/8/9 cells assay.
HEK293-Blue-hTLR-8 cells assay:
A stable HEK293-Blue-hTLR-8 cell line was purchased from InvivoGen (Cat.#: hkb-htlr8, San Diego, California, USA). These cells were originally designed for studying the stimulation of human TLR8 by monitoring the activation of NF-κB. A SEAP (secreted embryonic alkaline phosphatase) reporter gene was placed under the control of the IFN-β minimal promoter fused to five NF-κB and AP-1-binding sites. The SEAP was induced by activating NF-κB and AP-1 via stimulating HEK-Blue hTLR8 cells with TLR8 ligands. Therefore the reporter expression was declined by TLR8 antagonist under the stimulation of a ligand, such as R848, for incubation of 20 hrs. The cell culture supernatant SEAP reporter activity was determined using QUANTI-Blue™ kit (Cat.#: rep-qb1, Invivogen, San Diego, Ca, USA) at a wavelength of 640 nm, a detection medium that turns purple or blue in the presence of alkaline phosphatase.
HEK293-Blue-hTLR8 cells were incubated at a density of 250,000∼450,000 cells/mL in a volume of 170 µL in a 96-well plate in Dulbecco's Modified Eagle's medium (DMEM) containing 4.5 g/L glucose, 50 U/mL penicillin, […], […], 2 mM L-glutamine, 10% (v/v) heat-inactivated fetal bovine serum with addition of 20 µL test compound in a serial dilution in the presence of final DMSO at 1% and 10 µL of 60uM R848 in above DMEM, perform incubation under 37 °C in a CO2 incubator for 20 hrs. Then 20 µL of the supernatant from each well was incubated with 180 µL Quanti-blue substrate solution at 37°C for 2 hrs and the absorbance was read at 620∼655 nm using a spectrophotometer. The signalling pathway that TLR8 activation leads to downstream NF-κB activation has been widely accepted, and therefore similar reporter assay was modified for evaluating TLR8 antagonist.
Consider `C[C@@H]1CN(c2ccc(C#N)c3ncsc23)C[C@H](CN2Cc3cc(N4CCNCC4)cnc3C2)O1` [Example 25, 7-[(2R,6S)-2-methyl-6-[(3-piperazin-1-yl-5,7-dihydropyrrolo[3,4-b]pyridin-6-yl)methyl]morpholin-4-yl]-1,3-benzothiazole-4-carbonitrile], for which the IC50 was under 3 nM.

Take `C[C@@H]1CN(c2ccc(Cl)c3ncccc23)C[C@H](CN2Cc3ccc(N4CCNCC4)cc3C2)O1` [Example 31, (2R,6S)-4-(8-chloro-5-quinolyl)-2-methyl-6-[(5-piperazin-1-ylisoindolin-2-yl)methyl]morpholine]: the IC50 is 13 nM.

Take `C[C@@H]1CN(c2ccc(C#N)c3nccnc23)C[C@H](CN2Cc3ccc(N4CC5COCC(C4)N5)cc3C2)O1` [Example 49, 8-[(2R,6S)-2-methyl-6-[[5-(3-oxa-7,9-diazabicyclo[3.3.1]nonan-7-yl)isoindolin-2-yl]methyl]morpholin-4-yl]quinoxaline-5-carbonitrile]: the IC50 is 14 nM.

As for `C[C@@H]1CN(c2ccc(Cl)c3nccnc23)C[C@H](CN2CCc3cc(N4CCNCC4)ccc3C2)O1` [Example 34, (2R,6S)-4-(8-chloroquinoxalin-5-yl)-2-methyl-6-[(6-piperazin-1-yl-3,4-dihydro-1H-isoquinolin-2-yl)methyl]morpholine], the IC50 is 5 nM.

For the compound `C[C@@H]1CN(c2ccc(C#N)c3ncccc23)C[C@H](CN2CCc3nc(N4CCNCC4)ccc3C2)O1` [Example 79, 5-[(2R,6S)-2-methyl-6-[(2-piperazin-1-yl-7,8-dihydro-5H-1,6-naphthyridin-6-yl)methyl]morpholin-4-yl]quinoline-8-carbonitrile], the IC50 is 4 nM.

`C[C@@H]1CN(c2ccc(C#N)c3ncccc23)C[C@H](CN2Cc3ccc(N4CCNCC4CO)cc3C2)O1` (stereo partly drawn) [Example 73, 5-[(2S,6R)-2-[[5-[2-(hydroxymethyl)piperazin-1-yl]isoindolin-2-yl]methyl]-6-methyl-morpholin-4-yl]quinoline-8-carbonitrile]: the IC50 was found to be 10 nM.

For `C[C@@H]1CN(c2ccc(C#N)c3nccnc23)C[C@H](CN2Cc3ccc(N4CCNC5(CC5)C4)cc3C2)O1` [Example 38, 8-[(2S,6R)-2-[[5-(4,7-diazaspiro[2.5]octan-7-yl)isoindolin-2-yl]methyl]-6-methyl-morpholin-4-yl]quinoxaline-5-carbonitrile], the IC50 was found to be 5 nM.

In the case of `C[C@@H]1CN(c2ccc(C#N)c3ncccc23)C[C@H](CN2Cc3cc(N4CCNCC4)cc(F)c3C2)O1` [Example 59, 5-[(2S,6R)-2-[(4-fluoro-6-piperazin-1-yl-isoindolin-2-yl)methyl]-6-methyl-morpholin-4-yl]quinoline-8-carbonitrile], the IC50 is under 3 nM.

For `C[C@@H]1CN(c2ccc(C#N)c3ncccc23)C[C@H](CNCc2ccc(N3CCNCC3)cc2)O1` [Example 86, 5-[(2R,6S)-2-methyl-6-[[(4-piperazin-1-ylphenyl)methylamino]methyl]morpholin-4-yl] quinoline-8-carbonitrile], the IC50 is 26 nM.

Regarding `C[C@@H]1CN(c2ccc(C#N)c3ncccc23)C[C@H](CN2Cc3ccc(N4CCN[C@@H](C)C4)cc3C2)O1` [Example 64, 5-[(2R,6S)-2-methyl-6-[[5-[(3S)-3-methylpiperazin-1-yl]isoindolin-2-yl]methyl]morpholin-4-yl]quinoline-8-carbonitrile], the IC50 turned out to be 6 nM.

Take `C[C@@H]1CN(c2ccc(C#N)c3ncccc23)C[C@H](CN2Cc3ccccc3C2)O1` [Example R3, 5-[(2S,6R)-2-(isoindolin-2-ylmethyl)-6-methyl-morpholin-4-yl]quinoline-8-carbonitrile, reference compound]: the IC50 came to 146 nM.

As to `C[C@@H]1CN(c2ccc(C#N)c3ncccc23)C[C@H](CN2Cc3cc(N4CCN(C)CC4)cc(F)c3C2)O1` [Example 69, 5-[(2S,6R)-2-[[4-fluoro-6-(4-methylpiperazin-1-yl)isoindolin-2-yl]methyl]-6-methyl-morpholin-4-yl]quinoline-8-carbonitrile], the IC50 is under 3 nM.

On to `C[C@@H]1CN(c2ccc(C#N)c3ncccc23)C[C@H](CN2Cc3ccc(N4CCNCC4)cc3C(O)C2)O1` (stereo partly drawn) [Example 75, 5-[(2S,6R)-2-[(4-hydroxy-6-piperazin-1-yl-3,4-dihydro-1H-isoquinolin-2-yl)methyl]-6-methyl-morpholin-4-yl]quinoline-8-carbonitrile], for which the IC50 came out at 4 nM.

Consider `C[C@@H]1CN(c2ccc(C#N)c3nccnc23)C[C@H](CN2Cc3cc(N4CCNCC4)cnc3C2)O1` [Example 30, 8-[(2R,6S)-2-methyl-6-[(3-piperazin-1-yl-5,7-dihydropyrrolo[3,4-b]pyridin-6-yl)methyl]morpholin-4-yl]quinoxaline-5-carbonitrile], for which the IC50 came to 3 nM.

Take `C[C@@H]1CN(c2ccc(C#N)n3nccc23)C[C@H](CN2Cc3ccc(C4CCNC4)cc3C2)O1` (stereo partly drawn) [Example 9, 4-[(2R,6S)-2-methyl-6-[(5-pyrrolidin-3-ylisoindolin-2-yl)methyl]morpholin-4-yl]pyrazolo[1,5-a]pyridine-7-carbonitrile]: the IC50 amounted to 90 nM.

On to `C[C@@H]1CN(c2ccc(C#N)c3nccnc23)C[C@H](CN2CCc3cc(N4CCNCC4)ccc3C2)O1` [Example 13, 8-[(2R,6S)-2-methyl-6-[(6-piperazin-1-yl-3,4-dihydro-1H-isoquinolin-2-yl)methyl]morpholin-4-yl]quinoxaline-5-carbonitrile], for which the IC50 was under 3 nM.

In the case of `C[C@@H]1CN(c2ccc(C#N)n3nccc23)C[C@H](CN2Cc3cc(N4CCNCC4)cnc3C2)O1` [Example 18, 4-[(2R,6S)-2-methyl-6-[(3-piperazin-1-yl-5,7-dihydropyrrolo[3,4-b]pyridin-6-yl)methyl]morpholin-4-yl]pyrazolo[1,5-a]pyridine-7-carbonitrile], the IC50 is 31 nM.

On to `C[C@@H]1CN(c2ccc(C#N)n3nccc23)C[C@H](CN2CCc3ccc(N4CCNCC4)cc3C2)O1` [Example 11, 4-[(2R,6S)-2-methyl-6-[(7-piperazin-1-yl-3,4-dihydro-1H-isoquinolin-2-yl)methyl]morpholin-4-yl]pyrazolo[1,5-a]pyridine-7-carbonitrile], for which the IC50 is 229 nM.

As to `C[C@@H]1CN(c2ccc3c(c2)CN(C[C@H]2CN(c4ccc(C#N)c5ncccc45)C[C@@H](C)O2)C3)C[C@@H](C)N1` (mixture of isomers) [Example 57, Trans-5-[(2R,6S)-2-methyl-6-[[5-[3,5-dimethylpiperazin-1-yl]isoindolin-2-yl]methyl]morpholin-4-yl]quinoline-8-carbonitrile], the IC50 was 12 nM.

As to `C[C@@H]1CN(c2ccc(C#N)c3nccnc23)C[C@H](CN2Cc3ccc(N4CCN5CCCCC5C4)cc3C2)O1` (stereo partly drawn) [Example 40, 8-[(2S,6R)-2-[[5-(1,3,4,6,7,8,9,9a-octahydropyrido[1,2-a]pyrazin-2-yl)isoindolin-2-yl]methyl]-6-methyl-morpholin-4-yl]quinoxaline-5-carbonitrile], the IC50 amounted to 4 nM.

For the origin of these results see patent publication EP3623369A1, “NOVEL MORPHOLINYL AMINE COMPOUNDS FOR THE TREATMENT OF AUTOIMMUNE DISEASE” (F. Hoffmann-La Roche AG, priority 2018, dated 2020).
